From ChEMBL document CHEMBL1201862, “PubChem BioAssay data set” (2004)
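Assay format: 96-well plates, 48-hour exposure. GI50 marks 50% less growth.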 Activity calls are given as the source filed them. No stated cut-off is given here; in the data, active = GI50 up to about 1.1 µM and inactive = higher.

What was measured:
Experiment in all cases: NCI anticancer screen, dose series, 48 h
786-0 = test system: 786-0
A498 = test system: A498
A549 = test system: A549
ACHN = test system: ACHN
CAKI-1 = test system: CAKI-1
CCRF-CEM = test system: CCRF-CEM
COLO 205 = test system: COLO 205
DLD-1 = test system: DLD-1
DMS-114 = test system: DMS-114
EKVX = test system: EKVX
HCC 2998 = test system: HCC 2998
HCT-116 = test system: HCT-116
HCT-15 = test system: HCT-15
HL-60 = test system: HL-60
HOP-62 = test system: HOP-62
HOP-92 = test system: HOP-92
HT-29 = test system: HT-29
IGROV-1 = test system: IGROV-1
K562 = test system: K562
KM-20L2 = test system: KM-20L2
KM12 = test system: KM12
LOX IMVI = test system: LOX IMVI
LXFL 529 = test system: LXFL 529
M14 = test system: M14
M19-MEL = test system: M19-MEL
MOLT-4 = test system: MOLT-4
Malme-3M = test system: Malme-3M
NCI-H226 = test system: NCI-H226
NCI-H23 = test system: NCI-H23
NCI-H460 = test system: NCI-H460
OVCAR-3 = test system: OVCAR-3
OVCAR-4 = test system: OVCAR-4
OVCAR-5 = test system: OVCAR-5
OVCAR-8 = test system: OVCAR-8
RPMI-8226 = test system: RPMI-8226
RXF 393 = test system: RXF 393
SF-268 = test system: SF-268
SF-295 = test system: SF-295
SF-539 = test system: SF-539
SK-MEL-28 = test system: SK-MEL-28
SK-MEL-2 = test system: SK-MEL-2
SK-MEL-5 = test system: SK-MEL-5
SK-OV-3 = test system: SK-OV-3
SN12C = test system: SN12C
SNB-19 = test system: SNB-19
SNB-75 = test system: SNB-75
SNB-78 = test system: SNB-78
SR = test system: SR
SW-620 = test system: SW-620
TK-10 = test system: TK-10
U-251 = test system: U-251
UACC-257 = test system: UACC-257
UACC-62 = test system: UACC-62
UO-31 = test system: UO-31
XF498 = test system: XF498
DMS-273 = test system: DMS-273
NCI-H522 = test system: NCI-H522

Measured: GI50

CCOC(=O)C(=O)Nc1c(F)cc(F)cc1Br
> 100 µM: HCT-15
inactive: 786-0 > 100 µM | A498 > 100 µM | A549 > 100 µM | ACHN > 100 µM | CAKI-1 > 100 µM | CCRF-CEM > 100 µM | COLO 205 > 100 µM | DLD-1 > 100 µM | DMS-114 > 100 µM | EKVX > 100 µM | HCC 2998 > 100 µM | HCT-116 > 100 µM | HL-60 > 100 µM | HOP-62 > 100 µM | HOP-92 > 100 µM | HT-29 > 100 µM | IGROV-1 > 100 µM | K562 > 100 µM | KM-20L2 > 100 µM | KM12 > 100 µM | LOX IMVI > 100 µM | LXFL 529 > 100 µM | M14 > 100 µM | M19-MEL > 100 µM | MOLT-4 > 100 µM | Malme-3M > 100 µM | NCI-H226 > 100 µM | NCI-H23 > 100 µM | NCI-H460 > 100 µM | OVCAR-3 > 100 µM | OVCAR-4 > 100 µM | OVCAR-5 > 100 µM | OVCAR-8 > 100 µM | RPMI-8226 > 100 µM | RXF 393 > 100 µM | SF-268 > 100 µM | SF-295 > 100 µM | SF-539 > 100 µM | SK-MEL-28 > 100 µM | SK-MEL-2 > 100 µM | SK-MEL-5 > 100 µM | SK-OV-3 > 100 µM | SN12C > 100 µM | SNB-19 > 100 µM | SNB-75 > 100 µM | SNB-78 > 100 µM | SR > 100 µM | SW-620 > 100 µM | TK-10 > 100 µM | U-251 > 100 µM | UACC-257 > 100 µM | UACC-62 > 100 µM | UO-31 > 100 µM | XF498 > 100 µM

COC(=O)/C=C1/CCC(C(=O)OC)N1 (centres undefined)
inactive: 786-0 > 100 µM | A498 > 100 µM | A549 > 100 µM | ACHN > 100 µM | CAKI-1 > 100 µM | CCRF-CEM > 100 µM | COLO 205 > 100 µM | DLD-1 > 100 µM | DMS-114 > 100 µM | DMS-273 > 100 µM | EKVX > 100 µM | HCC 2998 > 100 µM | HCT-116 > 100 µM | HL-60 > 100 µM | HOP-62 > 100 µM | HOP-92 > 100 µM | IGROV-1 > 100 µM | K562 > 100 µM | KM-20L2 > 100 µM | KM12 > 100 µM | LOX IMVI > 100 µM | LXFL 529 > 100 µM | M14 > 100 µM | M19-MEL > 100 µM | MOLT-4 > 100 µM | NCI-H23 > 100 µM | NCI-H460 > 100 µM | OVCAR-3 > 100 µM | OVCAR-4 > 100 µM | OVCAR-8 > 100 µM | RPMI-8226 > 100 µM | RXF 393 > 100 µM | SF-268 > 100 µM | SF-295 > 100 µM | SF-539 > 100 µM | SK-MEL-28 > 100 µM | SK-MEL-2 > 100 µM | SK-MEL-5 > 100 µM | SK-OV-3 > 100 µM | SN12C > 100 µM | SNB-19 > 100 µM | SNB-75 > 100 µM | SNB-78 > 100 µM | SR > 100 µM | SW-620 > 100 µM | TK-10 > 100 µM | U-251 > 100 µM | UACC-257 > 100 µM | UACC-62 > 100 µM | UO-31 > 100 µM | XF498 > 100 µM
> 100 µM: HCT-15

COC(=O)C(c1ccc(OC)cc1)N1C(=O)[C@@H](NC(=O)c2ccccc2)[C@H]1[C@@H](C)O (some centres undefined)
inactive: 786-0 > 100 µM | A549 > 100 µM | ACHN > 100 µM | CCRF-CEM > 100 µM | COLO 205 > 100 µM | DLD-1 > 100 µM | DMS-273 > 100 µM | EKVX > 100 µM | HCC 2998 > 100 µM | HCT-116 > 100 µM | HL-60 > 100 µM | HOP-62 > 100 µM | HOP-92 > 100 µM | HT-29 > 100 µM | IGROV-1 > 100 µM | K562 > 100 µM | KM-20L2 > 100 µM | KM12 > 100 µM | LOX IMVI > 100 µM | LXFL 529 > 100 µM | M14 > 100 µM | M19-MEL > 100 µM | MOLT-4 > 100 µM | Malme-3M > 100 µM | NCI-H226 > 100 µM | NCI-H23 > 100 µM | NCI-H460 > 100 µM | NCI-H522 > 100 µM | OVCAR-3 > 100 µM | OVCAR-4 > 100 µM | OVCAR-8 > 100 µM | RXF 393 > 100 µM | SF-268 > 100 µM | SF-295 > 100 µM | SF-539 > 100 µM | SK-MEL-28 > 100 µM | SK-MEL-2 > 100 µM | SK-MEL-5 > 100 µM | SK-OV-3 > 100 µM | SN12C > 100 µM | SNB-19 > 100 µM | SNB-75 > 100 µM | SNB-78 > 100 µM | SR > 100 µM | SW-620 > 100 µM | TK-10 > 100 µM | U-251 > 100 µM | UACC-257 > 100 µM | UACC-62 > 100 µM | UO-31 > 100 µM | XF498 > 100 µM
> 100 µM: HCT-15
